For test [1], the system named is corpus cavernosal smooth muscle cells (CCSM). Put plainly: cGMP levels in primary CCSM / PVSM. The note with it: CCSM/PVSM of both wild type and A2BR deficient mice, 10 min. Format: cell-based, mouse. An excerpt: Results for wild-type and A2B^−/− mouse were statistically significant, p<0.01.
FIG. 18. Adenosine stimulated both cAMP and cGMP induction in corpus cavernosal smooth muscle cells (CCSM) via A2BR activation. (a) Adenosine receptor expression profile in purified primary CCSM. CCSM were purified from adult mouse penes. […] (b) CCSM were isolated and cultured from mouse penes. The cells were switched to serum-free medium and treated with different concentrations of adenosine with or without A2BR antagonist (MRS1706-10 μM), A2AR antagonist (ZM241385-50 nM) or A2AR agonist (CGS-21680-10 μM) alone for 10 min. Then cellular extracts were collected and cAMP levels were measured using an ELISA kit. The data represent mean±SE. *p<0.05, adenosine treated versus the untreated; **p<0.05, adenosine plus MRS1706 or ZM241385 versus the adenosine treated. (c) CCSM were isolated from penes of the wild type and A2BR-deficient mice and cultured with or without adenosine (100 μM), NECA (10 μM), a potent adenosine receptor agonist, forskolin (10 μM), an adenylyl cyclase agonist. […] N=4. *p<0.05, adenosine, forskolin and NECA treated versus the untreated control. (d) Corpus cavernosal strips (CCS) were isolated from wild type and A2BR-deficient mice and treated with different concentrations of adenosine in the presence or absence of L-NAME (100 μM) or MRS1706 (10 μM). 10 min after treatment, cellular extracts were collected and cGMP levels were measured by using a commercial enzyme immunoassay kit (Amersham Pharmacia). Data are expressed as mean±SE. *p<0.05, adenosine treated versus the control; **p<0.05, adenosine treated with MRS1706 versus the adenosine treated; ***p<0.05, CCS of A2BR-deficient mice treated with adenosine versus the CCS of wild type mice treated with adenosine. N=6-7. (e) CCSM were isolated from wild type and A2BR deficient mice and cultured with or without adenosine (100 μM), NECA (10 μM), a potent adenosine receptor agonist, forskolin (10 μM), an adenylyl cyclase agonist, or diethylamine-NONOate (DEA/NO) (10 μM). […] N=4. *p<0.05, DEA/NO treated versus to the untreated control. (f) Both cAMP and cGMP induction contribute to adenosine-mediated decreased PE-induced phosphorylation of myosin light chain (MLC). CCSM and CCS were isolated and cultured with the treatment of phenylephrine (PE-10 μM) in the presence or absence of adenosine (100 μM) or L-NAME (100 μM). 10 min after treatment, cellular extracts were isolated and western blot analysis were performed. The total MLC and phosphorylated MLC at S20 were detected by specific antibodies.
(§1) Isolation of primary corpus cavernosal smooth muscle cells (CCSM). Corpus cavernosum tissues were dissected as described above. Cavernosal tissue was washed in PBS and minced into […] pieces. Segments were incubated in 5-10 ml enzyme solutions containing 0.02% collagenase A (0.272 U/mg protein, Roche, Mannheim, Germany) and 0.5% elastase (3.73 U/mg protein, Cell system, St Katharinen, Germany) in a 75 mm flask at 37° C. for 6 hours. Enzymatic digestion was terminated by adding 10 ml DMEM supplemented with 10% fetal calf serum (FCS). […]
Tissue and corpus cavernosum smooth muscle cell (CCSM) cAMP and cGMP measurement. Quantitative assays for cAMP and cGMP were performed by using a commercial enzyme immunoassay kit (Amersham Pharmacia). […]

The test system is the same in test [2]. Put plainly: cAMP production in primary corpus cavernosal / penile vascular smooth muscle cells (CCSM, PVSM). In kind it is cell-based, mouse. The note with it: 10 min. The method, then: PVSM were isolated and cultured from mouse penes. The cells were be switched to serum-free medium and treated with different concentrations of adenosine with or without A2B antagonist (MRS1706-1 μM) or A2A agonist (CGS-21680-1 μM) alone for 10 min. Then cellular extracts were collected and cAMP levels were measured using an ELISA kit. The data represent mean±SE.
Data are presented as mean±SE. *, p<0.01.
FIG. 18. Adenosine stimulated both cAMP and cGMP induction in corpus cavernosal smooth muscle cells (CCSM) via A2BR activation. (a) Adenosine receptor expression profile in purified primary CCSM. CCSM were purified from adult mouse penes. […] (b) CCSM were isolated and cultured from mouse penes. The cells were switched to serum-free medium and treated with different concentrations of adenosine with or without A2BR antagonist (MRS1706-10 μM), A2AR antagonist (ZM241385-50 nM) or A2AR agonist (CGS-21680-10 μM) alone for 10 min. Then cellular extracts were collected and cAMP levels were measured using an ELISA kit. The data represent mean±SE. *p<0.05, adenosine treated versus the untreated; **p<0.05, adenosine plus MRS1706 or ZM241385 versus the adenosine treated. (c) CCSM were isolated from penes of the wild type and A2BR-deficient mice and cultured with or without adenosine (100 μM), NECA (10 μM), a potent adenosine receptor agonist, forskolin (10 μM), an adenylyl cyclase agonist. After 10 min treatment, the cellular extracts were collected and cAMP levels were measured by using a commercial enzyme immunoassay kit (Amersham Pharmacia). N=4. *p<0.05, adenosine, forskolin and NECA treated versus the untreated control. (d) Corpus cavernosal strips (CCS) were isolated from wild type and A2BR-deficient mice and treated with different concentrations of adenosine in the presence or absence of L-NAME (100 μM) or MRS1706 (10 μM). 10 min after treatment, cellular extracts were collected and cGMP levels were measured by using a commercial enzyme immunoassay kit (Amersham Pharmacia). Data are expressed as mean±SE. *p<0.05, adenosine treated versus the control; **p<0.05, adenosine treated with MRS1706 versus the adenosine treated; ***p<0.05, CCS of A2BR-deficient mice treated with adenosine versus the CCS of wild type mice treated with adenosine. N=6-7. (e) CCSM were isolated from wild type and A2BR deficient mice and cultured with or without adenosine (100 μM), NECA (10 μM), a potent adenosine receptor agonist, forskolin (10 μM), an adenylyl cyclase agonist, or diethylamine-NONOate (DEA/NO) (10 μM). After 10 min treatment, the cellular extracts were collected and cAMP levels were measured by using a commercial enzyme immunoassay kit (Amersham Pharmacia). N=4. *p<0.05, DEA/NO treated versus to the untreated control. (f) Both cAMP and cGMP induction contribute to adenosine-mediated decreased PE-induced phosphorylation of myosin light chain (MLC). CCSM and CCS were isolated and cultured with the treatment of phenylephrine (PE-10 μM) in the presence or absence of adenosine (100 μM) or L-NAME (100 μM). 10 min after treatment, cellular extracts were isolated and western blot analysis were performed. The total MLC and phosphorylated MLC at S20 were detected by specific antibodies.
as §1
For orientation: cAMP levels reflect the balance of adenylyl cyclase and phosphodiesterase activity.

Test [3] concerns corpus cavernosum of wild type, A2A-deficient and A2B-deficient mice. Put plainly: Intracavernous injection of adenosine: intracavernous pressure (ICP) and penile erection. Format: in vivo, mouse. The conditions noted are these: wild type mice. The method, then:
FIG. 6. Different amounts of adenosine were injected into the corpus cavernosum of wild type, adenosine receptor A2A-deficient, and adenosine receptor A2B-deficient mice and the resulting change in ICP determined.
Methods: ADA-deficient mice and SCD transgenic mice, a well accepted priapism animal model, are the only animals known in which a persistent and prolonged penile erection occurs spontaneously. […] We have measured intracavernosal pressure and corpus cavernosal strip (CCS) relaxation with or without PEG-ADA treatment and/or a series of adenosine receptor antagonists or agonists in wild type ADA-deficient mice, and corpus cavernosal strip (CCS) relaxation with or without PEG-ADA treatment and/or a series of adenosine receptor antagonists or agonists in SCD transgenic mice, in response to nerve stimulation. We have also measured the intracavernosal pressure and CCS relaxation with or without adenosine treatment in wild type and multiple adenosine receptor deficient mice.

Test [4] has as its system corpus cavernosal strips (CCS). Put plainly: Adenosine-induced relaxation of corpus cavernosal strips (CCS). Format: cell-based, mouse. The conditions noted are these: CCS of wild type mice, DCF 5 μM or 0-100 uM with adenosine 100 μM; listed as DCF. As to the method:
FIG. 16. […] CCS of wild type mice were treated with different concentrations of adenosine with or without DCF (5 μM), a specific inhibitor of adenosine deaminase. Then the extent (mN) of force was monitored. (b) CCS of wild type mice were treated with 100 μM adenosine in the presence of different concentrations of DCF (0-100 uM). Then the extent of force was measured. Data are expressed as mean±SE. *p<0.05, adenosine treated versus the control, **p<0.05, DCF treated versus the adenosine treated.
FIG. 17. A2BR signaling is required for adenosine-mediated corpus cavernosal strips (CCS) relaxation. (a) CCS of wild type mice were treated with different concentrations of theophiline (1-10 μM) in the presence or absence of adenosine (100 μM). The force changes were measured by force transducer. Data are expressed as mean±SE. *p<0.05, adenosine treated versus the control, **p<0.05, theophiline treated versus the untreated, N=5. (b) CCS from wild type, A2AR, A1R A2BR and A3R-deficient mice were treated with different concentrations of adenosine. The relaxation was measured by force transducer. Data are expressed as mean±SE. *p<0.05, adenosine treated versus the wild type. (c) CCS were isolated from wild type and A2BR-deficient mice and treated with different concentrations of adenosine in the presence or absence of L-NAME (100 μM) or MRS1706 (10 μM). 10 min after treatment, cellular extracts were collected and cAMP levels were measured by using a commercial enzyme immunoassay kit (Amersham Pharmacia). Data are expressed as mean±SE. *p<0.05, adenosine treated versus the control without treatment; **p<0.05, adenosine treated with MRS1706 versus the adenosine treated alone; ***p<0.05, CCS of A2BR-deficient mice treated with adenosine versus the CCS of wild type mice treated with adenosine. N=6-7. (d) CCS of A2BR and ADA double deficient mice lost the hypersensitivity to nerve stimulation compared to ADA deficient mice.
Function experiments. The tunica albuginea was cut longitudinally, starting at the most proximal point of the corpus cavernosum (CC) toward the penile shaft, and the erectile tissue was partially dissected free from the tunica. One strip of tissue (0.3×0.3×3 mm) was obtained from each corpus cavernosum. The contractility of each isolated corpus cavernosum smooth muscle cells (CCSM) strip was measured using an isometric force transducer (AD Instrument Inc., Georgia, Vt., USA). The strip was mounted in a thermostatically controlled tissue bath containing aerated PSS (mM: 119 NaCl, 4.7 KCl, 24 NaHCO 3, 1.2 KH2PO4, 2.5 CaCl2, 1.2 MgSO4, 0.023 EDTA, and 11 glucose; 5 ml volume, 95% O2 and 5% CO2, 37° C.) and stretched to a resting tension of 0.1 mN. The contractile responses of the strips were analysed by adding 10 μM phenylephrine to the bath, and force changes were recorded in response to drug application and to electrical field stimulation. The particular electrical field stimulation parameters of 0-30V, 30 HZ with a pulse width of approximately 0.5 ms, are commonly used in the mice. […] The changes of cAMP and cGMP contents in CC strips were subsequently measured by commercial enzyme immunoassay kit (Amersham Pharmacia) (see below).

[5] abbreviates: wild type CCSM/PVSM, agent alone.

“Also recorded” adds a separate entry of the source.

Consider `CCN(CC)/[N+]([O-])=N/O.CCNCC` [DEA/NO, diethylamine-NONOate], for which the cGMP levels entry in test [1] is recorded as “induced cGMP production”; in test [1] (listed as diethylamine-NONOate) it was “comparable high levels of cGMP production”.

With `CCNC(=O)[C@H]1O[C@@H](n2cnc3c(N)nc(NCCc4ccc(CCC(=O)O)cc4)nc32)[C@H](O)[C@@H]1O` [CGS21690C], the cAMP production entry in test [2] (setting [5]) is on record as “failed to induce cAMP production”.

Turning to `OC[C@H]1O[C@@H](n2cnc3c2NC=NC[C@H]3O)C[C@@H]1O` [deoxycoformycin], in test [3] (co-injected with adenosine), the “adenosine-induced penile erection with ADA inhibitor” value is “prolonged”. Also, in test [3] (coinjection with adenosine), the “adenosine-induced increase in pressure (ICP) with ADA inhibitor” value is reported as “prolonged the adenosine-induced increase in pressure”. Also, the “adenosine-induced CCS relaxation with ADA inhibitor versus adenosine alone” value in test [4] is “significantly increased relaxation compared with adenosine alone; also recorded: increased the adenosine induced relaxation of CCS”.

For `CCNC(=O)[C@H]1O[C@@H](n2cnc3c(N)ncnc32)[C@H](O)[C@@H]1O` [NECA, 5′-N-ethylcarbosamide adenosine], the cAMP production result was “essentially no effect on cAMP levels; also recorded: failed to induce cAMP production” in test [2] (CCSM/PVSM of A2BR deficient (A2B-/-) mice) and “elevate cAMP levels; also recorded: induced cAMP” in test [2] (setting [5]). Further, the cGMP levels result in test [1] was “lack of significant differences in cGMP production; also recorded: had no effect”.

(Values after patent US20100254965A1, “Adenosine Signaling in Diagnosis, Treatment, and Prevention of Priapism and Erectile Dysfunction” (BOARD OF REGENTS ,THE UNIVERSITY OF TEXAS SYSTEM, priority 2006, published 2010).)
